Data reported in patent publication US20040018560A1, “Crystallized LXR polypeptide in complex with a ligand and screening methods employing same” (priority 2002, published 2004).
Changes are numbered by the printed parent chain. Values belong to the molecule of their own block, whether it stands above or below them.

T1: human LXRβ LBD (Homo sapiens, UniProt P55055, H434A)
T1 construct: LXRβ (amino acids 155-462); expressed in transfected cells; host or cells: CV-1 cells
T1 sequence (P55055 155-460 H434A): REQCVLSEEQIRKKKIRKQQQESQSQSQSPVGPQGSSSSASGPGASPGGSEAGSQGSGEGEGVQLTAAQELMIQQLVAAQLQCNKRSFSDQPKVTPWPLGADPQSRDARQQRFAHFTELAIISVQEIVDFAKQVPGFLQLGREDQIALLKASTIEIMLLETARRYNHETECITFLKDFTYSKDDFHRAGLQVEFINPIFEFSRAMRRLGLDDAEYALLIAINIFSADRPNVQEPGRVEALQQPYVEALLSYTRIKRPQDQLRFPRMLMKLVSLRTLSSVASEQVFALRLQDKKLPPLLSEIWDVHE

T2: human LXRβ LBD (Homo sapiens, UniProt P55055, Y334W)
T2 construct: LXRβ (amino acids 155-462); expressed in transfected cells; host or cells: CV-1 cells
T2 sequence (P55055 155-460 Y334W): T1 sequence (P55055 155-460 H434A) with Y180W, A280H

T3: human LXRα LBD (Homo sapiens, UniProt Q13133, H421A)
T3 construct: LXRα (amino acids 164-447); expressed in transfected cells; host or cells: CV-1 cells
T3 sequence (Q13133 164-447 H421A): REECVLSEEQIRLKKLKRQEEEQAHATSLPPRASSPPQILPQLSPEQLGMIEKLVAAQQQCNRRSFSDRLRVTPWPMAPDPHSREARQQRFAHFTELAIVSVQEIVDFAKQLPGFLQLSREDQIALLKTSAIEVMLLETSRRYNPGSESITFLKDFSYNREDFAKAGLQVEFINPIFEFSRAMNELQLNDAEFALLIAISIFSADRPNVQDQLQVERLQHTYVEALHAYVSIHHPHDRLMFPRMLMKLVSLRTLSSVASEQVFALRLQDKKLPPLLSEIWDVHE

B1: SRC1 peptide (second LXXLL motif of the nuclear receptor co-activator SRC-1) (peptide)
peptide: CPSSHSSLTERHKILHRLLQQGSPS
notes: also called SRC1(2); SRC peptide
B2: human LXRβ LBD (ligand binding domain) containing amino acids 214-462 (receptor)
chain: GSEGEGVQLTAAQELMIQQLVAAQLQCNKRSFSDQPKVTPWPLGADPQSRDARQQRFAHFTELAIISVQEIVDFAKQVPGFLQLGREDQIALLKASTIEIMLLETARRYNHETECITFLKDFTYSKDDFHRAGLQVEFINPIFEFSRAMRRLGLDDAEYALLIAINIFSADRPNVQEPGRVEALQQPYVEALLSYTRIKRPQDQLRFPRMLMKLVSLRTLSSVHSEQVFALRLQDKKLPPLLSEIWDVHE
notes: It is entered here as the monomer, so that self-association is the pair m1-m1; also called LXR LBD

Legend:
[1] = tested on: LXR; assay: Ligand binding to LXR
[2] = target: T1, human LXRβ LBD; assay: Gal4-LXRβ LBD (wild type and mutant) transactivation, SPAP reporter, transient transfection in CV-1 cells; assay type: cell-based; settings: LXRβ H435A mutant LBD, compound 10 μM, 18 hours
Experimental: (§1) FIG. 7B is a bar graph depicting the effect of mutating LXR LBD pocket residues on transcriptional activity, which was determined by measuring the amount of SPAP synthesized in CV-1 cells by a transiently transfected Gal4 fusion of LXRβ LBD.
(§2) To explore these differences, site directed mutants were made targeting specific pocket residues that interacted more directly with one compound than the other. […] However, the gauche conformation of I317 extended into a pocket near the beta turn. […] By contrast, O3 of EPC extended into a hydrophilic pocket (see FIG. 6B) which includes residues E281 (E267α), E315 (E301α), and R319 (R305α). Mutations in this region permit identification of the necessary polar interactions for EPC binding. The transactivation capability of gal4-fusions of wild-type and mutant LXRα and LXRβ LBDs were measured by their ability to transcribe secreted placental alkaline phosphatase (SPAP) on a UAS-tk promoter in transient transfection experiments in CV-1 cells. See Laboratory Example 4. […]
(§3) Wild type and mutant LXR transactivation activity was measured in CV-1 cells. […]
(§4) Alkaline phosphatase activity was assayed by adding 200 μl substrate (7 mM p-nitrophenyl phosphate in 1 M diethanolamine/0.28 M sodium chloride/0.5 mM magnesium chloride, pH 9.85) to each well of the plates, incubating at room temperature, and reading absorbance at 405 nm. […]

[3] = target: T2, human LXRβ LBD; assay: as above; assay type: cell-based; settings: LXRβ Y335W mutant LBD, compound 10 μM, 18 hours
Experimental: as §1, §2, §3, §4

[4] = target: T3, human LXRα LBD; assay: Gal4-LXRα LBD (wild type and mutant) transactivation, SPAP reporter, transient transfection in CV-1 cells; assay type: cell-based; settings: compound 10 μM, 18 hours
Experimental: FIG. 7A is a bar graph depicting the effect of mutating LXR LBD pocket residues on transcriptional activity, which was determined by measuring the amount of SPAP synthesized in CV-1 cells by a transiently transfected Gal4 fusion of LXRα LBD.
as §2, §3, §4

[5] = tested on: LXR; settings: both LXR subtypes; compared with the natural ligands; cited from earlier work
[6] = tested on: LXR; assay: LXR activation (general statements, literature)
[7] = tested on: LXR; assay: Co-activator recruitment by LXR; assay type: biochemical
[8] = target: B2; assay: X-ray co-crystal structure, LXRβ LBD with EPC and SRC1 peptide
Experimental: Crystallization trials were carried out using the hanging drop method by mixing 2 μl of protein solution with 2 μl of well buffer. Both the LXRβ/ligand complexes crystallized out of 10-12% PEG 3350-8000 with 0.2M salt at 40° C. Usable LXRβ/T0901317 crystals were obtained from a number of salts including NaF, KF, NaCl, KCl, Na formate, Na acetate, and K acetate. The best LXRβ/EPC (24(S), 25-epoxycholesterol) crystals were obtained with ammonium sulfate and lithium sulfate salts. All crystals took 4-6 weeks to grow. Crystals were frozen in LN₂ after transferring stepwise to a cryo buffer containing the well buffer with 30% PEG 400.

[9] = target: the molecule itself; assay: X-ray crystal structures, homodimer in the asymmetric unit

binding to LXR [1]: bound tightly
transcriptional activity (SPAP) with H435A mutant [2]: completely knocked out the activity
transcriptional activity (SPAP) with Y335W mutant [3]: some modulation
transcriptional activity (SPAP) with H421A mutant [4]: completely knocked out the activity
Molecule: O=S(=O)(c1ccccc1)N(CC(F)(F)F)c1ccc(C(O)(C(F)(F)F)C(F)(F)F)cc1 [T317, N-(2,2,2-trifluoroethyl)-N-[4-(2,2,2-trifluoro-1-hydroxy-1-trifluoromethyl-ethyl)-phenyl]-benzenesulfonamide]
potency in activating both LXRs [5]: as potent
efficacy of LXR activation [6]: efficacious

binding to LXR [1]: do bind to LXR
Molecule: CC(C)CCC[C@@H](C)[C@H]1CC[C@H]2[C@@H]3CC=C4C[C@@H](O)CC[C@]4(C)[C@H]3CC[C@]12C [cholesterol]
recruitment of co-activator [7]: do not recruit co-activator

Molecule: B1
binding result [8]: binds

Molecule: B2
binding result [9]: binds
